Measurements as given in PMC11120720, “Linking Variability in Phytochemical Composition with Safety Profile of Thymus carnosus Boiss. Extracts: Effect of Major Compounds and Evaluation of Markers of Oxidative Stress and Cell Death” (International Journal of Molecular Sciences, 2024).
Like-named read-outs stand apart in the source and are kept apart here.

Legend:
HepG2 cells [1] = details: read-out: IC50, HepG2 cells; 72 h; cited from earlier work
[2] = design: method as in PMID 31344882, PMID 26042707; details: cited from earlier work
[3] = system: colorectal cancer (HCT15) cells; design: method as in PMID 12046077; details: cited from earlier work
HepG2 cells [4] = assay: Intracellular ROS (DCFDA, flow cytometry), HepG2; format: cell-based, human; details: compound 50 µM, 24 h
Description: (§1) The cells were then equally divided for each assay.
(§2) Intracellular ROS level assessment was performed as described by Silva et al., 2022 [65], using dichlorodihydrofluorescein diacetate (DCFDA). Cells obtained in the previous step were centrifuged, the supernatant discarded, and 200 µL of DCFDA (10 µM in FBS-free DMEM) was added. Cells were incubated for 45 min (37 °C, in the dark), washed to remove excess probe, and resuspended in PBS for data acquisition.

[5] = system: human glioblastoma cells (DBTRG-05MG); design: method as in PMID 25131308; details: cited from earlier work
Caco-2 cells [6] = assay: Annexin V-FITC/PI apoptosis/necrosis, Caco-2; format: cell-based; details: compound 50 µM, 24 h
Description: as §1
(§3) For the assessment of apoptotic/necrotic cell death, an Annexin V-FITC (Thermo Fisher Scientific, Waltham, MA, USA) and propidium iodide (PI; Merck, Darmstadt, Germany) double-staining assay was used to evaluate the apoptotic/necrotic cell death induced by T. carnosus extracts and by individual phytochemicals, as described previously. Briefly, after detachment and washing, the supernatant was discarded, and 200 µL of Annexin V-FITC (1:200 dilution in Annexin-binding buffer [10 mM HEPES sodium salt, 150 mM NaCl, 5 mM KCl, 5 mM MgCl2, and 1.8 mM CaCl2; pH = 7.4]) was added. Cells were incubated for 20 min (room temperature, in the dark). After incubation, 5 µL of propidium iodide (PI; 50 µg/mL) was added, the cells were incubated for 5 min on ice (in the dark), and the data were acquired.

HepG2 cells [7] = assay: Alamar Blue cell viability assay, HepG2; format: cell-based, human; details: Homo sapiens, HepG2
Description: (§4) The safety profile of T. carnosus AD and HE extracts was evaluated in Caco-2 and HepG2 cells using an Alamar Blue® (Invitrogen; Alfagene, Lisboa, Portugal) assay. An initial screening was performed for all extracts at concentrations ranging between 100 and 1000 µg/mL. Due to the higher toxicity of the HE extracts, which was previously described for various extracts of Thymus species using the same extraction methods (e.g., T. mastichina and Thymus zygis), a different set of concentrations was used for the HE extracts (between 100 and 300 µg/mL for Caco-2 cells and 50 and 150 µg/mL for HepG2 cells). Figure 1 presents the data related to the cell viability assays in Caco-2 (panels A–E) and HepG2 cells (panels F–J) exposed to T. carnosus extracts, as indicated.
(§5) The safety profile of T. carnosus extracts was assessed in Caco-2 and HepG2 cells. Caco-2 (human colon adenocarcinoma cell line) were obtained from CLS (Cell Lines Service, Eppelheim, Germany), and HepG2 (human hepatocellular carcinoma cell line) were obtained from ATCC (American Type Culture Collection, Manassas, VA, USA).
(§6) Cell culture maintenance, handling, subculturing, and seeding were performed as described by Silva et al., 2020 [5], and cell viability was assessed using an Alamar Blue® assay, as described by Andreani et al., 2014 [64]. Concentrations ranged between 100 and 1000 µg/mL for AD extracts in both cell lines and 100 to 300 µg/mL or 50 to 150 µg/mL for HE extracts in Caco-2 and HepG2 cells, respectively. The effect of individual compounds on cell viability was assessed for concentrations ranging from 50 to 300 µM. All test solutions were prepared by diluting the samples in FBS-free culture media from the stock solutions described in Section 3.2, just prior to being used.
(§7) The results are presented as mean ± SD of at least three independent assays. The calculation of IC50 values was performed as described by Silva et al., 2020 [5]. Data analysis, graphical design, and statistical analysis were performed using Microsoft Office Excel (Professional Plus 2019; Microsoft Corporation, Washington, DC, USA) and GraphPad Prism (Version 8; GraphPad Software Inc., San Diego, CA, USA). Flow cytometry data analysis was performed using BD Accuri™ C6 Software, version 1.0.264.21 (Becton Dickinson, San Diego, CA, USA).

HepG2 cells [8] = assay: Mitochondrial membrane potential (JC-1, flow cytometry), HepG2; format: cell-based, human; details: compound 50 µM, 24 h
Description: Flow cytometry was used to analyze the effect of T. carnosus extracts on intracellular ROS, modulation of mitochondrial membrane potential (MMP), cell cycle arrest, and apoptotic/necrotic cell death induction.
Both one- and two-color assays were performed using a BD Accuri™ C6 cytometer (Becton Dickinson, Franklin Lakes, NJ, USA), and 10,000 gated events were collected from each sample [1]. For flow cytometry assays, cells were handled as described previously but seeded at a density 5 × 10^4 cells/mL (750 μL/well) in 12-well plates. Caco-2 and HepG2 cells were incubated for 24 h with the extracts (100 µg/mL) or individual phytochemicals (50 µM) diluted in FBS-free culture media h. After incubation, test solutions were removed; the cells were washed with PBS and detached from the plates using trypsin-EDTA. Once transferred to centrifuge tubes, the cells were centrifuged (bench micro-centrifuge; 3000 rpm; 3 min), the supernatant was discarded, and a new wash cycle was performed. The cells were then equally divided for each assay. A negative control was used in all assays consisting of nonexposed cells incubated only with culture media.
Mitochondrial membrane potential (MMP) was evaluated using 5,5″,6,6″-tetrachloro-1,1″,3,3″-tetraethylbenzimidazolylcarbocyanineiodide (JC-1). Cells were processed as described for DCFDA but incubated with 200 µL of JC-1 (2 µM, in FBS-free DMEM) for 20 min (37 °C, in the dark).

Caco-2 cells [9] = assay: Cell cycle arrest (PI, flow cytometry), Caco-2; format: cell-based; details: compound 50 µM, 24 h; listed as UA
Description: as §1
(§8) Cell cycle arrest assessment was performed as described in [1]. Cells were processed as described above until cell detachment and centrifuged, after which the second washing step was performed with ice-cold PBS (0 °C). After centrifugation, the supernatant was discarded, and cells were fixed with 500 µL of ethanol:PBS solution (70:30, % v/v, previously cooled at −20 °C) for at least 4 h at −20 °C. After fixation, two washing cycles were performed: the first with ice-cold PBS (0 °C) and the second with room-temperature PBS, followed by the addition of 200 µL of a PBS solution containing PI (50 µg/mL), RNAse A (50 µg/mL), and Triton X-100 (0.1%). Cells were incubated for 30 min at 37 °C, and then cells were washed once with PBS to remove the staining solution. After resuspension in PBS, the data were acquired.

[10] = system: hepatocarcinoma cells (HuH7); design: method as in PMID 20415421; details: 20-80 µM; cited from earlier work
Caco-2 cells [11] = assay: Intracellular ROS (DCFDA, flow cytometry), Caco-2; format: cell-based; details: compound 50 µM, 24 h
Description: as §1, §2

HepG2 cells [12] = assay: Cell cycle arrest (PI, flow cytometry), HepG2; format: cell-based, human; details: compound 50 µM, 24 h
Description: as §1, §8

Caco-2 cells [13] = assay: Alamar Blue cell viability assay, Caco-2; format: cell-based, human; details: Homo sapiens, Caco-2
Description: as §4, §5, §6, §7

HepG2 cells [14] = assay: Annexin V-FITC/PI apoptosis/necrosis, HepG2; format: cell-based, human; details: compound 50 µM, 24 h
Description: as §1, §3

## C[C@H]1[C@H](C)CC[C@]2(C(=O)O)CC[C@]3(C)C(=CC[C@@H]4[C@@]5(C)CC[C@H](O)C(C)(C)[C@@H]5CC[C@]43C)[C@H]12 [Ursolic acid, ursolic acid]
HepG2 cells [1]
  IC50: 41 µM
[2]
  lipophilicity: high lipophilicity
  water solubility: poor water solubility
[3]
  cell cycle effect, HCT15: cytostatic effect in the G0/G1 phase
HepG2 cells [4]
  change in intracellular ROS, HepG2: significant (p < 0.05) increase in intracellular HepG2 ROS levels
[5]; 17.50 µM
  cell death type, DBTRG-05MG: mitochondria-dependent necrosis
[5]
  MMP modulation, DBTRG-05MG: transient hyperpolarization of the mitochondria membrane
Caco-2 cells [6]
  percentage of cells in late apoptosis, Caco-2: ~ 70%
  percentage of cells in necrosis, Caco-2: ~ 12%
HepG2 cells [7]; 24 h exposure, read-out: IC50 (µM) - HepG2 cells: 24 h
  IC50: 79.6 ± 2.45 µM
HepG2 cells [7]; 48 h exposure, read-out: IC50 (µM) - HepG2 cells: 48 h
  IC50: 75.2 ± 1.97 µM
HepG2 cells [8]
  MMP modulation, HepG2: slight increase
Caco-2 cells [9]
  cell cycle effect, Caco-2: cell cycle arrest in G0/G1
[10]
  MMP modulation, HuH7: reduce MMP
Caco-2 cells [11]
  change in intracellular ROS, Caco-2: increase in ROS
HepG2 cells [12]
  cell cycle effect, HepG2: no UA-induced cytostatic effect
Caco-2 cells [13]; 24 h exposure, read-out: IC50 (µM) - Caco-2 cells: 24 h
  IC50: 59 ± 1.35 µM
Caco-2 cells [13]; 48 h exposure, read-out: IC50 (µM) - Caco-2 cells: 48 h
  IC50: 44.3 ± 2.31 µM
HepG2 cells [14]
  cell death induction, HepG2: only slightly increased (p < 0.05) the percentage of necrotic cells
